These results are taken from patent US9021738B2, “Control of termites, fire ants and carpenter ants” (priority 2008, dated 2015).

Series [1] has as its system Formosan subterranean termites. Type of series: in vivo, Coptotermes formosanus. The note with it: for termites killed: 25 mg/liter volume. As for the experimental part:
(§1) Formosan subterranean termites were collected from bucket traps placed in City Park, New Orleans, La. Altogether five colonies designated 1314, 1559, 1732, 1743 and 1756 were used in the tests. After collection, the termites (primarily workers and soldiers) were transferred to plastic boxes with moist spruce slats. The boxes were stored in an incubator maintained at 28° C., 65% RH, and constant darkness. Termites were used within one month of their collection.
(§2) Vapor Toxicity Under Subterranean Conditions. This test was also conducted in the one liter Qorpak™ bottles. A 35 by 40 by 7 mm piece of moist spruce was placed at the bottom of the bottle and covered with 40 g fine-sifted black soil. One hundred termite workers were released into each bottle and allowed to tunnel under the soil and into the wood. After 3 days, a test chemical was applied to a filter paper and suspended from the cap-liner. The chemicals were tested at 10, 25 and 50 mg. […] The test was conducted with termites from 3 colonies and replicated 3 times.
Because in their natural environment the subterranean termites are not expected to be exposed to a chemical in open space, we conducted the next test by placing 100 workers termites in spruce slats covered with a layer of soil, all placed in the same glass bottles. Tests were conducted at 25 mg dose. After 2 days tetrahydrocarvone (both d- and l-isomers) caused 100% mortality.

Series [2] relates to drywood termites. The note with it: Petri dish assays, as claimed in prior art; cited from earlier work.
The subject of series [3] is Formosan subterranean termites. The series can be described thus: Assay for Vapor Toxicity. Type of series: in vivo, Coptotermes formosanus. Here is the method: as §1
Assay for Vapor Toxicity. This test was conducted in 960 ml wide-mouth clear Qorpak™ (All-Pak, Inc.) bottles with PTFE lined caps. A 60 mm diameter glass Petri dish with a moist filter paper and 50 termite workers was placed at the bottom of each bottle. The test chemical was applied to a 1 cm diameter filter paper and suspended with an insect pin from the cap-liner. Each chemical was initially tested at 1 mg in the one liter bottle then at 0.1 and 0.5 mg. Since 0.1 and 0.5 mg doses caused very low and 100% mortality respectively, the final test was carried out at 0.25 mg. Each chemical was tested with different termite colonies and replicated three times. The bottles were placed in the incubator. Mortality was recorded after 1, 2 and 3 days by quickly taking the glass Petri dish with the termites out of the bottle (with a pair of long forceps) and replacing it after removing the dead workers.

Series [4] relates to fire ants. The series can be described thus: Vapor Toxicity Under Subterranean Conditions with fire ants. Format: in vivo, Solenopsis invicta. The note with it: 25 mg, in 24 hours. Here is the method:
as §2
The same Vapor Toxicity Under Subterranean Conditions test as described in paragraph [0023] was conducted except that fire ants were employed instead of termites.

Series [5] has as its system carpenter ants. As to the kind of experiment: Sealed jar test on carpenter ants. Type of series: in vivo, Camponotus chromaoides. The note with it: one drop (approximately 30 mg) on filter paper in sealed 16 oz jar, within 24 hours. As for the experimental part:
One drop (approximately 30 mg) of tetrahydro l-carvone test compound was applied to filter paper within a sealed jar (16 oz glass jar, 3½ inch diameter, 3⅞ inch high with plastic lids) containing ten carpenter (Camponotus chromaoides) ants per replicate with there being five replicates. Five negative controls with no test compounds were also run. The tetrahydro-1-carvone provided 100% mortality to the carpenter ants within 24 hours while the control produced 6% mortality over the same 24 hour period.

Like-named read-outs stand apart in the source and are kept apart here.

With `C=C(C)C1CC=C(C)[C@@H](O)C1` (stereo partly shown) [carveol], the “efficacy against termites in soil and wood” value (“efficacy against termites” below) in series [1] is on record as “totally ineffective”. Also, the “mortality of drywood and other termites” value in series [2] is on record as “high mortality”.

On to `CC(C)=CCCC(C)CC=O` (stereo not shown) [citronellal], for which the “efficacy against termites” value in series [1] is listed as “totally ineffective”. In addition, the “mortality of drywood and other termites” value in series [2] was “high mortality”.

For the compound `C=C(C)[C@@H]1CC[C@@H](C)C(=O)C1` [dihydro-l-carvone], the termites killed in series [1] (in 48 hours) stood at 100%.

Turning to `CC(C)=CCC/C(C)=C/CO` [geraniol], in series [1], the “efficacy against termites” value is “totally ineffective”. The “mortality of drywood and other termites” value in series [2] is “high mortality”.

With `Cc1ccc(C(C)C)cc1` [p-cymene], the “efficacy against termites” value in series [1] is “totally ineffective”. In series [2], the “mortality of drywood and other termites” value is given as “high mortality”.

On to `CC(C)[C@@H]1CC[C@@H](C)C(=O)C1` [tetrahydro-d-carvone], for which the termites killed is on record as 75% in series [3] (0.25 mg/liter volume, in 3 days) and 100% in series [3] (0.5 mg/liter volume, in 1 day). Besides, in series [4], the fire ants killed amounted to 100%.

Turning to `CC(C)[C@@H]1CC[C@@H](C)C(=O)C1` [tetrahydro-l-carvone], the termites killed was found to be 100% in series [3] (1 mg per liter volume, in 1 day) and 100% in series [1] (in 24 hrs). The “mortality to carpenter ants” value in series [5] was 100%.

Take `CC(C)[C@@H]1CC[C@@H](C)C(=O)C1` [tetrahydrocarvone]: the mortality (in general, the percentage killed) in series [1] (25 mg dose, after 2 days, 100 worker termites in spruce slats covered with soil) turned out to be 100%.
